Data taken from patent US12060347B2 (BRISTOL-MYERS SQUIBB COMPANY, priority 2016, dated 2024).

Target: T1, human PAR4 (Homo sapiens, UniProt Q96RI0)
T1 construct: expressed in transfected cells; host or cells: HEK293 PAR4 Clone 1.2A (BMS Arctic ID 383940)
T1 sequence (Q96RI0 18-385): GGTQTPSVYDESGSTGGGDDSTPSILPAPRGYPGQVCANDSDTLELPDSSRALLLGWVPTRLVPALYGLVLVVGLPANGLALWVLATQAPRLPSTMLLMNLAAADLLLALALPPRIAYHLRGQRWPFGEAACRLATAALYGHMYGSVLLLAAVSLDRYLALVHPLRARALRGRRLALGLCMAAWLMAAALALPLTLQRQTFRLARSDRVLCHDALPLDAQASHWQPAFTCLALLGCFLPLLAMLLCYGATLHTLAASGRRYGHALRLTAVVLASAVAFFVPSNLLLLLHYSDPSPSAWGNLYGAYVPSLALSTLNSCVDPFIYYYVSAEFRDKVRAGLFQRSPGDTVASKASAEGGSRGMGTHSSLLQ
Assay: PAR4 FLIPR assay: antagonism of agonist-peptide-induced calcium mobilization in PAR4-expressing HEK293 cells
Format: cell-based
Settings: H-Ala-Phe(4-F)-[…]NH2-induced intracellular calcium mobilization, 11-point curves

Row | IC50 [nM] | SMILES
1 | 17 | COc1cnc2c(-c3nc4c(C)cc(OCC(=O)O)cc4s3)cc(Cl)cc2n1 [Example 251, 2-((2-(7-chloro-2-methoxyquinoxalin-5-yl)-4-methylbenzo[d]thiazol-6-yl)oxy)acetic acid]
2 | 0.9 | COc1cnc2c(-c3nc4cc(F)c(O[C@@H](C)[C@@H](C)OC(=O)Nc5ccc(C(=O)NC[C@@H](C)O)nc5)cc4s3)cc(C)cc2n1 [Example 439, (2R,3S)-3-((5-fluoro-2-(2-methoxy-7-methylquinoxalin-5-yl)benzo[d]thiazol-6-yl)oxy)butan-2-yl (6-(((R)-2-hydroxypropyl)carbamoyl)pyridin-3-yl)carbamate]
3 | 1.1 | COc1cnc2c(-c3nc4c(C)cc(OC[C@@H](C)OC(=O)Nc5cncc(C#N)c5)nc4s3)cc(C)cc2n1 [Example 735, (R)-1-((2-(2-methoxy-7-methylquinoxalin-5-yl)-7-methylthiazolo[5,4-b]pyridin-5-yl)oxy) propan-2-yl (5-cyanopyridin-3-yl)carbamate]
4 | 80 | COc1cnc2c(-c3nc4c(s3)CC(C)(C)CC4)cc(C)cc2n1 [Example 141, 2-(2-methoxy-7-methylquinoxalin-5-yl)-6,6-dimethyl-4,5,6,7-tetrahydrobenzo[d]thiazole]
5 | 2.1 | COc1cnc2c(-c3cc4cc(OCCOC(=O)Nc5ccnc(C)c5)cc(Cl)c4o3)cc(C)cc2n1 [Example 38, 2-((7-chloro-2-(2-methoxy-7-methylquinoxalin-5-yl)benzofuran-5-yl)oxy)ethyl (2-methylpyridin-4-yl)carbamate]
6 | 1.1 | COc1cnc2c(-c3nc4cc(F)c(O[C@@H](C)[C@@H](C)OC(=O)Nc5ccc(C(=O)NC[C@H](C)O)nc5)nc4s3)cc(C)cc2n1 [Example 750, (2R,3S)-3-((6-fluoro-2-(2-methoxy-7-methylquinoxalin-5-yl)thiazolo[5,4-b]pyridin-5-yl)oxy)butan-2-yl (6-(((S)-2-hydroxypropyl)carbamoyl)pyridin-3-yl)carbamate]
7 | 1.3 | COc1cnc2c(-c3nc4cc(F)c(O[C@@H](C)[C@@H](C)OC(=O)Nc5ccc(C(=O)N6CCOC[C@@H]6CO)nc5)cc4s3)cc(C)cc2n1 [Example 487, (2R,3S)-3-((5-fluoro-2-(2-methoxy-7-methylquinoxalin-5-yl)benzo[d]thiazol-6-yl)oxy)butan-2-yl (6-((S)-3-(hydroxymethyl)morpholine-4-carbonyl)pyridin-3-yl)carbamate]
8 | 120 | COc1cnc2c(-c3cc4ccccc4o3)nc(C)cc2c1 [Example 134, 8-(benzofuran-2-yl)-3-methoxy-6-methyl-1,7-naphthyridine\]
9 | 2.9 | COc1cnc2c(-c3nc4c(Cl)c(F)c(O[C@@H](C)[C@@H](C)OC(=O)Nc5cccnc5)cc4s3)cc(Cl)cc2c1 [Example 799, (2R,3S)-3-((4-chloro-2-(6-chloro-3-methoxyquinolin-8-yl)-5-fluorobenzo[d]thiazol-6-yl)oxy)butan-2-yl pyridin-3-ylcarbamate]
10 | 0.7 | COc1cnc2c(-c3nc4cc(F)c(OC[C@@H](C)OC(=O)Nc5ccnc(OCCO)c5)cc4s3)cc(C)cc2n1 [Example 552, (R)-1-((5-fluoro-2-(2-methoxy-7-methylquinoxalin-5-yl)benzo[d]thiazol-6-yl)oxy)propan-2-yl (2-(2-hydroxyethoxy)pyridin-4-yl)carbamate]
11 | 42 | COc1cnc2c(-c3nc4c(Cl)c(F)c(OCC(=O)N5CCOCC5)cc4s3)cc(C)cc2n1 [Example 324, 2-((4-chloro-5-fluoro-2-(2-methoxy-7-methylquinoxalin-5-yl)benzo[d]thiazol-6-yl)oxy)-1-morpholinoethanone]
12 | 1.9 | COc1cnc2c(-c3nc4cc(F)c(O[C@@H](C)[C@@H](C)OC(=O)Nc5ccc(C)nc5)cc4s3)cc(C)cc2n1 [Example 405, (2R,3S)-3-((5-fluoro-2-(2-methoxy-7-methylquinoxalin-5-yl)benzo[d]thiazol-6-yl)oxy)butan-2-yl (6-methylpyridin-3-yl)carbamate]
13 | 1.1 | COc1cnc2c(-c3nc4c(C)cc(OC[C@@H](C)OC(=O)Nc5cccnc5)nc4s3)cc(C)cc2n1 [Example 733, (R)-1-((2-(2-methoxy-7-methylquinoxalin-5-yl)-7-methylthiazolo[5,4-b]pyridin-5-yl)oxy)propan-2-yl pyridin-3-ylcarbamate]
14 | 0.6 | COCc1cnc2c(-c3nc4c(C)cc(OC)cc4s3)cc(C)cc2n1 [Example 183, 6-methoxy-2-(2-(methoxymethyl)-7-methylquinoxalin-5-yl)-4-methylbenzo[d]thiazole]
15 | 1.5 | COc1cnc2c(-c3nc4cc(F)c(O[C@@H](C)[C@@H](C)OC(=O)Nc5ccc(C(=O)NCCC(C)(C)O)nc5)cc4s3)cc(C)cc2n1 [Example 464, (2R,3S)-3-((5-fluoro-2-(2-methoxy-7-methylquinoxalin-5-yl)benzo[d]thiazol-6-yl)oxy)butan-2-yl (6-((3-hydroxy-3-methylbutyl)carbamoyl)pyridin-3-yl)carbamate]
16 | 130 | Cc1cc(-c2cc3c(o2)CCCC3NC(=O)OC(C)(C)C)c2ncc(OC(F)F)nc2c1 (stereo not shown) [Example 25, tert-butyl (2-(2-(difluoromethoxy)-7-methylquinoxalin-5-yl)-4,5,6,7-tetrahydrobenzofuran-4-yl)carbamate]
17 | 0.9 | COc1cnc2c(-c3nc4cc(F)c(O[C@@H](C)[C@@H](C)OC(=O)Nc5ccc(C(=O)NCC(C)(C)O)nc5)cc4s3)cc(C)cc2n1 [Example 460, (2R,3S)-3-((5-fluoro-2-(2-methoxy-7-methylquinoxalin-5-yl)benzo[d]thiazol-6-yl)oxy)butan-2-yl (6-((2-hydroxy-2-methylpropyl)carbamoyl)pyridin-3-yl)carbamate]
18 | 3.4 | COc1cnc2c(-c3nc4cc(F)c(OC[C@@H](C)OC(=O)Nc5ccc(C(=O)NCC6(CO)CCC6)nc5)cc4s3)cc(C)cc2n1 [Example 473, (R)-1-((5-fluoro-2-(2-methoxy-7-methylquinoxalin-5-yl)benzo[d]thiazol-6-yl)oxy)propan-2-yl (6-(((1-(hydroxymethyl)cyclobutyl)methyl)carbamoyl)pyridin-3-yl)carbamate]
19 | 0.2 | COCc1cnc2c(-c3nc4c(Cl)cc(OCCNS(=O)(=O)c5ccc(F)cc5)cc4s3)cc(C)cc2n1 [Example 101, N-(2-(4-chloro-2-(2-(methoxymethyl)-7-methylquinoxalin-5-yl)benzo[d]thiazol-6-yloxy)ethyl)-4-fluorobenzenesulfonamide]
20 | 19 | Cc1cc(-c2nc3cc(F)ccc3s2)c2ncc(OC(F)F)nc2c1 [Example 60, 2-(2-(difluoromethoxy)-7-methylquinoxalin-5-yl)-5-fluorobenzo[d]thiazole]
21 | 0.9 | COc1cnc2c(-c3nc4cc(F)c(O[C@@H](C)[C@@H](C)OC(=O)Nc5cnc(OC)nc5)cc4s3)cc(C)cc2n1 [Example 407, (2R,3S)-3-((5-fluoro-2-(2-methoxy-7-methylquinoxalin-5-yl)benzo[d]thiazol-6-yl)oxy)butan-2-yl (2-methoxypyrimidin-5-yl)carbamate]
22 | 72 | COc1cnc2c(-c3nc4c(C)cc(OCCNS(=O)(=O)c5ccc(F)cc5)cc4s3)cc(C(O)c3ccccc3)cc2n1 (stereo not shown) [Example 240, 4-fluoro-N-(2-((2-(7-(hydroxy(phenyl)methyl)-2-methoxyquinoxalin-5-yl)-4-methylbenzo[d]thiazol-6-yl)oxy)ethyl)benzenesulfonamide]
23 | 1.5 | Cc1cc(-c2nc3c(C)cc(OCCNS(=O)(=O)c4ccc(F)cc4)cc3s2)c2ncc(OC(F)F)nc2c1 [Example 81, N-(2-(2-(2-(difluoromethoxy)-7-methylquinoxalin-5-yl)-4-methylbenzo[d]thiazol-6-yloxy)ethyl)-4-fluorobenzenesulfonamide]
24 | 1.4 | COc1cnc2c(-c3nc4cc(F)c(OC[C@@H](C)OC(=O)Nc5ccc(C(=O)N6CC[C@H](CO)C6)nc5)cc4s3)cc(C)cc2n1 [Example 479, (R)-1-((5-fluoro-2-(2-methoxy-7-methylquinoxalin-5-yl)benzo[d]thiazol-6-yl)oxy)propan-2-yl (6-((S)-3-(hydroxymethyl)pyrrolidine-1-carbonyl)pyridin-3-yl)carbamate]
25 | 3 | COc1cnc2c(-c3nc4cc(F)c(O[C@@H](C)[C@@H](C)OC(=O)Nc5cnc(OC[C@@H](C)O)nc5)cc4s3)cc(Cl)cc2c1 [Example 540, (2R,3S)-3-((2-(6-chloro-3-methoxyquinolin-8-yl)-5-fluorobenzo[d]thiazol-6-yl)oxy)butan-2-yl (2-((R)-2-hydroxypropoxy)pyrimidin-5-yl)carbamate]
26 | 2.1 | Cc1cc(-c2nc3cccc(NC(=O)OCc4ccccc4)c3s2)c2ncc(OC(F)F)nc2c1 [Example 76, benzyl 2-(2-(difluoromethoxy)-7-methylquinoxalin-5-yl)benzo[d]thiazol-7-ylcarbamate]
27 | 19 | Cc1cnc2c(-c3nc4c(C)cc(OCCNS(=O)(=O)c5ccc(F)cc5)cc4s3)cc(F)cc2n1 [Example 247, 4-fluoro-N-(2-((2-(7-fluoro-2-methylquinoxalin-5-yl)-4-methylbenzo[d]thiazol-6-yl)oxy)ethyl)benzenesulfonamide]
28 | 21 | Cc1cc(-c2nc3cc(F)c(O[C@@H](C)[C@@H](C)OC(=O)Nc4cnc(C)nc4)cc3s2)c2ncc(OCCO)nc2c1 [Example 493, (2R,3S)-3-((5-fluoro-2-(2-(2-hydroxyethoxy)-7-methylquinoxalin-5-yl)benzo[d]thiazol-6-yl)oxy)butan-2-yl (2-methylpyrimidin-5-yl)carbamate]
